{"source": "patent US11992490B2", "about": "“Use of JAK1 inhibitors for the treatment of cutaneous lupus erythematosus and Lichen planus (LP)” (Incyte Corporation, priority 2019, dated 2024)", "key": {"[1]": {"target": "human JAK1 (a.a. 837-1142) (Homo sapiens, UniProt P23458)", "assay": "In vitro JAK kinase assay (HTRF), JAK1", "assay_type": "biochemical", "conditions": "1 mM ATP"}, "[2]": {"target": "human JAK2 (a.a. 828-1132) (Homo sapiens (Human), UniProt O60674)", "sequence (O60674 828-1132)": "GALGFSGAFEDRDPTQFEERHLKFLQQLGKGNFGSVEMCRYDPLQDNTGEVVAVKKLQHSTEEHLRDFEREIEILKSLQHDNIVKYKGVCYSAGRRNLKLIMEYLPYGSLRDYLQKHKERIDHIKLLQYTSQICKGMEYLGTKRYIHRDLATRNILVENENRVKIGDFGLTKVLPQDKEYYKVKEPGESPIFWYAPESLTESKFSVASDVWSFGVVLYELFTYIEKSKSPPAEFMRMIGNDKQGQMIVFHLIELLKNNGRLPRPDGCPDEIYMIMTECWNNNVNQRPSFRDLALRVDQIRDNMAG", "assay": "In vitro JAK kinase assay (HTRF), JAK2", "assay_type": "biochemical", "conditions": "JAK2/JAK1 IC50 ratio, 1 mM ATP"}}, "note": "pIC50: −log10 of the molar value.", "data": [{"smiles": "N#CCC(C1CCN(c2nc3cccnc3o2)C1)n1cc(-c2ncnc3[nH]ccc23)cn1", "note": "(stereo not shown) [Compound 7, 3-(1-[1,3]oxazolo[5,4-b]pyridin-2-ylpyrrolidin-3-yl)-3-[4-(7H-pyrrolo[2,3-d]pyrimidin-4-yl)-1H-pyrazol-1-yl]propanenitrile]", "values": [{"measurement": "pIC50", "setting": "[1]", "value": "> 8.00"}, {"measurement": "JAK2/JAK1", "setting": "[2]", "value": ">10"}]}, {"smiles": "N#CCC1(n2cc(-c3ncnc4[nH]ccc34)cn2)CN(C2CCN(C(=O)c3ccnc(C(F)(F)F)n3)CC2)C1", "note": "[Compound 3, [3-[4-(7H-pyrrolo[2,3-d]pyrimidin-4-yl)-1H-pyrazol-1-yl]-1-(1-{[2-(trifluoromethyl)pyrimidin-4-yl]carbonyl}piperidin-4-yl)azetidin-3-yl]acetonitrile]", "values": [{"measurement": "pIC50", "setting": "[1]", "value": "> 8.00"}, {"measurement": "JAK2/JAK1", "setting": "[2]", "value": ">10"}]}, {"smiles": "N#CC[C@]1(n2cc(-c3ncnc4[nH]ccc34)cn2)C[C@H](N2CCN(C(=O)c3ccnc(C(F)(F)F)n3)CC2)C1", "note": "[Compound 10, [trans-1-[4-(7H-pyrrolo[2,3-d]pyrimidin-4-yl)-1H-pyrazol-1-yl]-3-(4-{[2-(trifluoromethyl)pyrimidin-4-yl]carbonyl}piperazin-1-yl)cyclobutyl]acetonitrile]", "values": [{"measurement": "pIC50", "setting": "[1]", "value": "> 8.00"}, {"measurement": "JAK2/JAK1", "setting": "[2]", "value": ">10"}]}, {"smiles": "N#CC[C@]1(n2cc(-c3ncnc4[nH]ccc34)cn2)C[C@H](N2CCC(Oc3cc(CN4CC(O)C4)cc(C(F)(F)F)n3)CC2)C1", "note": "[Compound 11, {trans-3-(4-{[4-[(3-hydroxyazetidin-1-yl)methyl]-6-(trifluoromethyl)pyridin-2-yl]oxy}piperidin-1-yl)-1-[4-(7H-pyrrolo[2,3-d]pyrimidin-4-yl)-1H-pyrazol-1-yl]cyclobutyl}acetonitrile]", "values": [{"measurement": "pIC50", "setting": "[1]", "value": "> 8.00"}, {"measurement": "JAK2/JAK1", "setting": "[2]", "value": ">10"}]}, {"smiles": "N#CCC1(n2cc(-c3ncnc4[nH]ccc34)cn2)CN(C2CCN(C(=O)Nc3ccc(F)cc3C(F)(F)F)CC2)C1", "note": "[Compound 2, 4-{3-(Cyanomethyl)-3-[4-(7H-pyrrolo[2,3-d]pyrimidin-4-yl)-1H-pyrazol-1-yl]azetidin-1-yl}-N-[4-fluoro-2-(trifluoromethyl)phenyl]piperidine-1-carboxamide]", "values": [{"measurement": "pIC50", "setting": "[1]", "value": "> 8.00"}, {"measurement": "JAK2/JAK1", "setting": "[2]", "value": ">10"}]}, {"smiles": "N#CCC(C1CCN(c2cccc(Cl)n2)C1)n1cc(-c2ncnc3[nH]ccc23)cn1", "note": "(single isomer, unassigned) [Compound 6, 3-[1-(6-chloropyridin-2-yl)pyrrolidin-3-yl]-3-[4-(7H-pyrrolo[2,3-d]pyrimidin-4-yl)-1H-pyrazol-1-yl]propanenitrile]", "values": [{"measurement": "pIC50", "setting": "[1]", "value": "> 8.00"}, {"measurement": "JAK2/JAK1", "setting": "[2]", "value": ">10"}]}, {"smiles": "N#CCC(CN1CCN(C(=O)c2ccc(C#N)cc2F)CC1)n1cc(-c2ncnc3[nH]ccc23)cn1", "note": "(stereo not shown) [Compound 8, 4-[(4-{3-cyano-2-[4-(7H-pyrrolo[2,3-d]pyrimidin-4-yl)-1H-pyrazol-1-yl]propyl}piperazin-1-yl)carbonyl]-3-fluorobenzonitrile]", "values": [{"measurement": "pIC50", "setting": "[1]", "value": "> 8.00"}, {"measurement": "JAK2/JAK1", "setting": "[2]", "value": ">10"}]}, {"smiles": "CC(C)(O)c1cc(O[C@H]2CC[C@@H](N3CC(CC#N)(n4cc(-c5ncnc6[nH]ccc56)cn4)C3)CC2)nc(C(F)(F)F)c1", "note": "[Compound 20, {1-(cis-4-{[4-(1-hydroxy-1-methylethyl)-6-(trifluoromethyl)pyridin-2-yl]oxy}cyclohexyl)-3-[4-(7H-pyrrolo[2,3-d]pyrimidin-4-yl)-1H-pyrazol-1-yl]azetidin-3-yl}acetonitrile]", "values": [{"measurement": "pIC50", "setting": "[1]", "value": "> 8.00"}, {"measurement": "JAK2/JAK1", "setting": "[2]", "value": ">10"}]}, {"smiles": "N#CCC(CN1CCN(C(=O)c2ccc(C#N)cc2F)CC1)n1ccc(-c2ncnc3[nH]ccc23)c1", "note": "(stereo not shown) [Compound 9, 4-[(4-{3-cyano-2-[3-(7H-pyrrolo[2,3-d]pyrimidin-4-yl)-1H-pyrrol-1-yl]propyl}piperazin-1-yl)carbonyl]-3-fluorobenzonitrile]", "values": [{"measurement": "pIC50", "setting": "[1]", "value": "> 8.00"}, {"measurement": "JAK2/JAK1", "setting": "[2]", "value": ">10"}]}, {"smiles": "C[C@H](O)CNCc1cc(OC2CCN([C@H]3C[C@](CC#N)(n4cc(-c5ncnc6[nH]ccc56)cn4)C3)CC2)nc(C(F)(F)F)c1", "note": "[Compound 25, {trans-3-(4-{[4-({[(2S)-2-hydroxypropyl]amino}methyl)-6-(trifluoromethyl)pyridin-2-yl]oxy}piperidin-1-yl)-1-[4-(7H-pyrrolo[2,3-d]pyrimidin-4-yl)-1H-pyrazol-1-yl]cyclobutyl}acetonitrile]", "values": [{"measurement": "pIC50", "setting": "[1]", "value": "> 8.00"}, {"measurement": "JAK2/JAK1", "setting": "[2]", "value": ">10"}]}, {"smiles": "N#CC[C@]1(n2cc(-c3ncnc4[nH]ccc34)cn2)C[C@H](N2CCC(Oc3cc(CCO)cc(C(F)(F)F)n3)CC2)C1", "note": "[Compound 26, {trans-3-(4-{[4-(2-hydroxyethyl)-6-(trifluoromethyl)pyridin-2-yl]oxy}piperidin-1-yl)-1-[4-(7H-pyrrolo[2,3-d]pyrimidin-4-yl)-1H-pyrazol-1-yl]cyclobutyl}acetonitrile]", "values": [{"measurement": "pIC50", "setting": "[1]", "value": "> 8.00"}, {"measurement": "JAK2/JAK1", "setting": "[2]", "value": ">10"}]}, {"smiles": "C[C@@H](O)c1nc2cnc3ccsc3c2n1[C@H]1CC[C@H](CC#N)OC1", "note": "[Compound 5, ((2R,5S)-5-{2-[(1R)-1-hydroxyethyl]-1H-imidazo[4,5-d]thieno[3,2-b]pyridin-1-yl}tetrahydro-2H-pyran-2-yl)acetonitrile]", "values": [{"measurement": "pIC50", "setting": "[1]", "value": "> 7.00"}, {"measurement": "JAK2/JAK1", "setting": "[2]", "value": ">10"}]}, {"smiles": "CCNCc1cc(O[C@H]2CC[C@@H](N3CC(CC#N)(n4cc(-c5ncnc6[nH]ccc56)cn4)C3)CC2)nc(C(F)(F)F)c1", "note": "[Compound 19, {1-(cis-4-{[4-[(ethylamino)methyl]-6-(trifluoromethyl)pyridin-2-yl]oxy}cyclohexyl)-3-[4-(7H-pyrrolo[2,3-d]pyrimidin-4-yl)-1H-pyrazol-1-yl]azetidin-3-yl}acetonitrile]", "values": [{"measurement": "pIC50", "setting": "[1]", "value": "> 8.00"}, {"measurement": "JAK2/JAK1", "setting": "[2]", "value": ">10"}]}, {"smiles": "N#CCC1(n2cc(-c3ncnc4[nH]ccc34)cn2)CN([C@H]2CC[C@@H](Oc3cc(CCO)nc(C(F)(F)F)n3)CC2)C1", "note": "[Compound 18, {1-(cis-4-{[6-(2-hydroxyethyl)-2-(trifluoromethyl)pyrimidin-4-yl]oxy}cyclohexyl)-3-[4-(7H-pyrrolo[2,3-d]pyrimidin-4-yl)-1H-pyrazol-1-yl]azetidin-3-yl}acetonitrile]", "values": [{"measurement": "pIC50", "setting": "[1]", "value": "> 8.00"}, {"measurement": "JAK2/JAK1", "setting": "[2]", "value": ">10"}]}, {"smiles": "N#CCC1(n2cc(-c3ncnc4[nH]ccc34)cn2)CN([C@H]2CC[C@@H](Oc3cc(CN4CC[C@H](O)C4)cc(C(F)(F)F)n3)CC2)C1", "note": "[Compound 22, {1-(cis-4-{[4-{[(3S)-3-hydroxypyrrolidin-1-yl]methyl}-6-(trifluoromethyl)pyridin-2-yl]oxy}cyclohexyl)-3-[4-(7H-pyrrolo[2,3-d]pyrimidin-4-yl)-1H-pyrazol-1-yl]azetidin-3-yl}acetonitrile]", "values": [{"measurement": "pIC50", "setting": "[1]", "value": "> 8.00"}, {"measurement": "JAK2/JAK1", "setting": "[2]", "value": ">10"}]}, {"smiles": "N#CC[C@]1(n2cc(-c3ncnc4[nH]ccc34)cn2)C[C@H](N2CCC(Oc3cc(CN4CCC[C@H]4CO)cc(C(F)(F)F)n3)CC2)C1", "note": "[Compound 12, {trans-3-(4-{[4-{[(2S)-2-(hydroxymethyl)pyrrolidin-1-yl]methyl}-6-(trifluoromethyl)pyridin-2-yl]oxy}piperidin-1-yl)-1-[4-(7H-pyrrolo[2,3-d]pyrimidin-4-yl)-1H-pyrazol-1-yl]cyclobutyl}acetonitrile]", "values": [{"measurement": "pIC50", "setting": "[1]", "value": "> 8.00"}, {"measurement": "JAK2/JAK1", "setting": "[2]", "value": ">10"}]}, {"smiles": "N#CCC1(n2cc(-c3ncnc4[nH]ccc34)cn2)CN([C@H]2CC[C@@H](Oc3cc(CN4CC[C@@H](O)C4)cc(C(F)(F)F)n3)CC2)C1", "note": "[Compound 21, {1-(cis-4-{[4-{[(3R)-3-hydroxypyrrolidin-1-yl]methyl}-6-(trifluoromethyl)pyridin-2-yl]oxy}cyclohexyl)-3-[4-(7H-pyrrolo[2,3-d]pyrimidin-4-yl)-1H-pyrazol-1-yl]azetidin-3-yl}acetonitrile]", "values": [{"measurement": "pIC50", "setting": "[1]", "value": "> 8.00"}, {"measurement": "JAK2/JAK1", "setting": "[2]", "value": ">10"}]}]}
